Experimental data as given in the NIST ThermoML archive (doi:10.1021/acs.jced.8b01135).

Experiment: xn = mol fraction of the nth substance listed
Details: 102 kPa, Liquid; for speed of sound: Frequency=3 MHz, Single path-length method; for mass density: Vibrating tube method; for viscosity: Concentric cylinders viscometry

CCCC1CCCCC1 [1-cyclohexylpropane] + CCCCCCCCCCCC
Details | mass density [kg/m3] | speed of sound [m/s] | viscosity [mPa·s]
288.15 K, x1 = 0.1007 | 755.55 | 1317.5 | –
288.15 K, x1 = 0.2001 | 758.92 | 1317.8 | –
288.15 K, x1 = 0.3001 | 762.54 | 1318.2 | –
288.15 K, x1 = 0.4011 | 766.49 | 1319.3 | –
288.15 K, x1 = 0.5 | 770.63 | 1320.1 | –
288.15 K, x1 = 0.6004 | 775.15 | 1320.9 | –
288.15 K, x1 = 0.6995 | 780 | 1322.1 | –
288.15 K, x1 = 0.7998 | 785.31 | 1323.8 | –
288.15 K, x1 = 0.8997 | 791.13 | 1326.1 | –
288.15 K, x1 = 1 | 797.42 | 1328.6 | –
293.15 K, x1 = 0.1007 | 751.91 | 1297.9 | 1.44
293.15 K, x1 = 0.2001 | 755.26 | 1298.2 | 1.39
293.15 K, x1 = 0.3001 | 758.87 | 1298.6 | 1.34
293.15 K, x1 = 0.4011 | 762.8 | 1299.8 | 1.28
293.15 K, x1 = 0.5 | 766.92 | 1300.2 | 1.23
293.15 K, x1 = 0.6004 | 771.42 | 1300.8 | 1.18
293.15 K, x1 = 0.6995 | 776.23 | 1301.9 | 1.13
293.15 K, x1 = 0.7998 | 781.51 | 1303.4 | 1.08
293.15 K, x1 = 0.8997 | 787.31 | 1305.3 | 1.03
293.15 K, x1 = 1 | 793.53 | 1307.7 | 0.981
298.15 K, x1 = 0.1007 | 748.27 | 1278.4 | –
298.15 K, x1 = 0.2001 | 751.61 | 1278.6 | –
298.15 K, x1 = 0.3001 | 755.2 | 1279 | –
298.15 K, x1 = 0.4011 | 759.11 | 1280.3 | –
298.15 K, x1 = 0.5 | 763.2 | 1280.8 | –
298.15 K, x1 = 0.6004 | 767.68 | 1280.8 | –
298.15 K, x1 = 0.6995 | 772.46 | 1281.8 | –
298.15 K, x1 = 0.7998 | 777.71 | 1283.1 | –
298.15 K, x1 = 0.8997 | 783.46 | 1284.7 | –
298.15 K, x1 = 1 | 789.63 | 1287.1 | –
303.15 K, x1 = 0.1007 | 744.62 | 1259.1 | 1.23
303.15 K, x1 = 0.2001 | 747.95 | 1259.2 | 1.18
303.15 K, x1 = 0.3001 | 751.53 | 1259.5 | 1.14
303.15 K, x1 = 0.4011 | 755.41 | 1260.9 | 1.1
303.15 K, x1 = 0.5 | 759.48 | 1261.1 | 1.06
303.15 K, x1 = 0.6004 | 763.93 | 1261 | 1.02
303.15 K, x1 = 0.6995 | 768.68 | 1261.8 | 0.977
303.15 K, x1 = 0.7998 | 773.89 | 1262.9 | 0.936
303.15 K, x1 = 0.8997 | 779.6 | 1264.3 | 0.897
303.15 K, x1 = 1 | 785.72 | 1266.6 | 0.856
313.15 K, x1 = 0.1007 | 737.32 | 1221.1 | 1.05
313.15 K, x1 = 0.2001 | 740.61 | 1221.1 | 1.01
313.15 K, x1 = 0.3001 | 744.15 | 1221.3 | 0.979
313.15 K, x1 = 0.4011 | 747.98 | 1222.3 | 0.946
313.15 K, x1 = 0.5 | 752.01 | 1222.6 | 0.914
313.15 K, x1 = 0.6004 | 756.42 | 1222.1 | 0.882
313.15 K, x1 = 0.6995 | 761.11 | 1222.6 | 0.85
313.15 K, x1 = 0.7998 | 766.24 | 1223.3 | 0.818
313.15 K, x1 = 0.8997 | 771.86 | 1224.3 | 0.783
313.15 K, x1 = 1 | 777.88 | 1226.2 | 0.75
323.15 K, x1 = 0.1007 | 729.98 | 1183.9 | 0.909
323.15 K, x1 = 0.2001 | 733.24 | 1183.7 | 0.882
323.15 K, x1 = 0.3001 | 736.75 | 1183.8 | 0.856
323.15 K, x1 = 0.4011 | 740.52 | 1184.5 | 0.831
323.15 K, x1 = 0.5 | 744.5 | 1184.6 | 0.802
323.15 K, x1 = 0.6004 | 748.86 | 1183.9 | 0.776
323.15 K, x1 = 0.6995 | 753.49 | 1184.1 | 0.75
323.15 K, x1 = 0.7998 | 758.55 | 1184.6 | 0.721
323.15 K, x1 = 0.8997 | 764.09 | 1185.1 | 0.694
323.15 K, x1 = 1 | 770 | 1186.5 | 0.668
333.15 K, x1 = 0.1007 | 722.61 | 1147.6 | 0.792
333.15 K, x1 = 0.2001 | 725.82 | 1147.3 | 0.769
333.15 K, x1 = 0.3001 | 729.3 | 1147.3 | 0.75
333.15 K, x1 = 0.4011 | 733.02 | 1147.5 | 0.729
333.15 K, x1 = 0.5 | 736.95 | 1147.3 | 0.707
333.15 K, x1 = 0.6004 | 741.26 | 1146.7 | 0.685
333.15 K, x1 = 0.6995 | 745.82 | 1146.7 | 0.663
333.15 K, x1 = 0.7998 | 750.81 | 1146.8 | 0.64
333.15 K, x1 = 0.8997 | 756.27 | 1146.9 | 0.618
333.15 K, x1 = 1 | 762.09 | 1147.7 | 0.594

CCCCCCCCCCC1CCCCC1 [decylcyclohexane] + CCCCCCCCCCCC
Details | mass density [kg/m3] | speed of sound [m/s] | viscosity [mPa·s]
288.15 K, x1 = 0.1003 | 760.76 | 1329.7 | –
288.15 K, x1 = 0.2194 | 770.26 | 1344 | –
288.15 K, x1 = 0.3002 | 776.43 | 1353.5 | –
288.15 K, x1 = 0.4004 | 783.8 | 1364.7 | –
288.15 K, x1 = 0.4999 | 790.8 | 1375.6 | –
288.15 K, x1 = 0.5993 | 797.51 | 1386.2 | –
288.15 K, x1 = 0.7001 | 804.03 | 1396.3 | –
288.15 K, x1 = 0.8005 | 810.28 | 1406.3 | –
288.15 K, x1 = 0.8991 | 816.18 | 1415.8 | –
288.15 K, x1 = 1 | 821.93 | 1425.2 | –
293.15 K, x1 = 0.1003 | 757.16 | 1310.3 | 1.7
293.15 K, x1 = 0.2194 | 766.69 | 1324.7 | 1.98
293.15 K, x1 = 0.3002 | 772.89 | 1334.2 | 2.19
293.15 K, x1 = 0.4004 | 780.28 | 1345.7 | 2.48
293.15 K, x1 = 0.4999 | 787.31 | 1356.6 | 2.82
293.15 K, x1 = 0.5993 | 794.05 | 1367.1 | 3.2
293.15 K, x1 = 0.7001 | 800.58 | 1377.5 | 3.64
293.15 K, x1 = 0.8005 | 806.85 | 1387.5 | 4.13
293.15 K, x1 = 0.8991 | 812.78 | 1397.1 | 4.68
293.15 K, x1 = 1 | 818.54 | 1406.4 | 5.34
298.15 K, x1 = 0.1003 | 753.56 | 1290.9 | –
298.15 K, x1 = 0.2194 | 763.13 | 1305.4 | –
298.15 K, x1 = 0.3002 | 769.34 | 1315 | –
298.15 K, x1 = 0.4004 | 776.76 | 1326.8 | –
298.15 K, x1 = 0.4999 | 783.81 | 1337.8 | –
298.15 K, x1 = 0.5993 | 790.58 | 1348.6 | –
298.15 K, x1 = 0.7001 | 797.13 | 1358.8 | –
298.15 K, x1 = 0.8005 | 803.42 | 1368.8 | –
298.15 K, x1 = 0.8991 | 809.36 | 1378.5 | –
298.15 K, x1 = 1 | 815.16 | 1387.7 | –
303.15 K, x1 = 0.1003 | 749.96 | 1271.8 | 1.43
303.15 K, x1 = 0.2194 | 759.57 | 1286.4 | 1.65
303.15 K, x1 = 0.3002 | 765.8 | 1296 | 1.79
303.15 K, x1 = 0.4004 | 773.24 | 1308.1 | 2.02
303.15 K, x1 = 0.4999 | 780.31 | 1319.1 | 2.27
303.15 K, x1 = 0.5993 | 787.1 | 1329.7 | 2.55
303.15 K, x1 = 0.7001 | 793.68 | 1340.2 | 2.88
303.15 K, x1 = 0.8005 | 799.99 | 1350.4 | 3.23
303.15 K, x1 = 0.8991 | 805.95 | 1360.1 | 3.63
303.15 K, x1 = 1 | 811.78 | 1369.1 | 4.09
313.15 K, x1 = 0.1003 | 742.75 | 1234.1 | 1.21
313.15 K, x1 = 0.2194 | 752.43 | 1248.9 | 1.39
313.15 K, x1 = 0.3002 | 758.71 | 1258.7 | 1.49
313.15 K, x1 = 0.4004 | 766.19 | 1271 | 1.67
313.15 K, x1 = 0.4999 | 773.32 | 1282.2 | 1.87
313.15 K, x1 = 0.5993 | 780.16 | 1292 | 2.08
313.15 K, x1 = 0.7001 | 786.78 | 1303.7 | 2.33
313.15 K, x1 = 0.8005 | 793.13 | 1313.9 | 2.6
313.15 K, x1 = 0.8991 | 799.14 | 1323.7 | 2.89
313.15 K, x1 = 1 | 805.02 | 1332.8 | 3.23
323.15 K, x1 = 0.1003 | 735.51 | 1197.2 | 1.04
323.15 K, x1 = 0.2194 | 745.28 | 1212.3 | 1.19
323.15 K, x1 = 0.3002 | 751.59 | 1222.1 | 1.29
323.15 K, x1 = 0.4004 | 759.13 | 1234.7 | 1.41
323.15 K, x1 = 0.4999 | 766.31 | 1246 | 1.56
323.15 K, x1 = 0.5993 | 773.2 | 1257 | 1.73
323.15 K, x1 = 0.7001 | 779.88 | 1267.7 | 1.92
323.15 K, x1 = 0.8005 | 786.28 | 1278.1 | 2.13
323.15 K, x1 = 0.8991 | 792.33 | 1288 | 2.35
323.15 K, x1 = 1 | 798.26 | 1297.2 | 2.6
333.15 K, x1 = 0.1003 | 728.24 | 1161.3 | 0.904
333.15 K, x1 = 0.2194 | 738.08 | 1176.5 | 1.02
333.15 K, x1 = 0.3002 | 744.46 | 1186.5 | 1.11
333.15 K, x1 = 0.4004 | 752.05 | 1199.1 | 1.2
333.15 K, x1 = 0.4999 | 759.29 | 1210.6 | 1.32
333.15 K, x1 = 0.5993 | 766.23 | 1221.8 | 1.46
333.15 K, x1 = 0.7001 | 772.96 | 1232.7 | 1.61
333.15 K, x1 = 0.8005 | 779.42 | 1243.2 | 1.78
333.15 K, x1 = 0.8991 | 785.51 | 1253.2 | 1.95
333.15 K, x1 = 1 | 791.49 | 1262.7 | 2.15
